Test results: PubChem BioAssay AID624482 (The Scripps Research Institute Molecular Screening Center, 2012)
Calls of active or inactive are those of the source.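 Rule for the calls: active = inhibition of the enzyme prolyl endopeptidase above 20%; inactive = inhibition at or below 20%.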

Target: Prolyl endopeptidase (Mus musculus) (UniProt Q9QUR6)
Test: mouse PEP inhibitors, selectivity assay for PREPL inhibitor project, biochemical, fluorescence, assay provider data (AID 624482)
Conditions: recombinant PEP, Z-Gly-Pro-AMC fluorescence; at 20 µM; hits give high values

Chain of Prolyl endopeptidase (Mus musculus) (Q9QUR6 whole entry, looked up): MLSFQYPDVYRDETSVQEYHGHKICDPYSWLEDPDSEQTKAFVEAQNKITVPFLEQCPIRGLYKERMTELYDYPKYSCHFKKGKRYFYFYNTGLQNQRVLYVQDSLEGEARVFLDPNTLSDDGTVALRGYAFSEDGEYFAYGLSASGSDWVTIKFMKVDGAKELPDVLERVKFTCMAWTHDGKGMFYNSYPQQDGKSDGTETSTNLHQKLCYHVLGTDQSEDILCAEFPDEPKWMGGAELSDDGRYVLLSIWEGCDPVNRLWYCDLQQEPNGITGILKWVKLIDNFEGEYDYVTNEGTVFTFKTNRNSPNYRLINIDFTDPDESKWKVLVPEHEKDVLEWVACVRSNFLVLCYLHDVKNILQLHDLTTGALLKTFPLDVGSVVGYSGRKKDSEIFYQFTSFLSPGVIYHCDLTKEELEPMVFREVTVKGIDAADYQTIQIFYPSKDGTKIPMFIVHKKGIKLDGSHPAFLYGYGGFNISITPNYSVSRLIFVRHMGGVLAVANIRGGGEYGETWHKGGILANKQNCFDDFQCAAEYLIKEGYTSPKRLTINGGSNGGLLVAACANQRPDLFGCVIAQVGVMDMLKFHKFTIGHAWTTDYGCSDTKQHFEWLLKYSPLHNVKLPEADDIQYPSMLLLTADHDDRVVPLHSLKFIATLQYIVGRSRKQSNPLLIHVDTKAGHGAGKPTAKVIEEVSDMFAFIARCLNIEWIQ

SMILES | inhibition
COc1cc2nc(Nc3ccc(C)c(C)c3)nc(N)c2cc1OC | 46%
N#Cc1c2c(c(-c3ccccc3)[nH]c1=O)CCCC2 | -13% (inactive)
O=C(Nc1ccc2c(c1)OCCO2)c1cccc2nc3ccccc3nc12 | -26% (inactive)
CC(C)Cc1[nH]c(=O)c(C#N)c2c1CCC2 | -17% (inactive)
CCOc1ccc(CCNC(=O)c2ccc3c(=O)[nH]c4c(C(=O)NC(C)C)sc(=S)n4c3c2)cc1 | -29% (inactive)
